Starred links: 1 amine or outer side, 2 acyl side, 3 side chain; linkers in the order of their positions; H or OH if unused. Positions of bridges follow the written chain, without caps; N, C: chain ends. Non-standard residues stand in square brackets, D forms with d. Residues, ends and D or L forms follow the SMILES beside them. *: point of attachment. Phe(4-CHF2) = N[C@@H](Cc1ccc(C(F)F)cc1)C(=O)O; NMePhe(3-Cl) = CN[C@@H](Cc1cccc(Cl)c1)C(=O)O; X12 = CCCC[C@@H](O)[C@H](N[*:1])C(=O)[*:2]; Ethyl(2-morpholino) = C1CN(CC*)CCO1; NMeF = CN[C@@H](Cc1ccccc1)C(=O)O; NMeGABA = CN(CCCC(=O)[*:2])[*:1]; NMeI = CC[C@H](C)[C@H](NC)C(=O)O; NMeL = CN[C@@H](CC(C)C)C(=O)O; dNMeL = CN[C@H](CC(C)C)C(=O)O; Propyl(2R-OH) = C[C@@H](O)C*; dNMeAbu = CC[C@@H](NC)C(=O)O; NMeV = CN[C@H](C(=O)O)C(C)C; NMeAbu = CC[C@H](NC)C(=O)O; NMeA = CN[C@@H](C)C(=O)O; Piperidide = C1CCN(*)CC1; NBuGly = CCCCNCC(=O)O; Ethyl(2-OH) = OCC*; Sar = CNCC(=O)O; tBu = CC(C)(C)*; CHF2 = FC(F)*

In the series the test system is Caco-2 cells. As to the kind of experiment: Caco-2 membrane permeability, improved method as used in the following Examples (96-well, 20 to 24 h preincubation). The class given is in vitro ADME. The following applies: human, Caco-2, 180 min. The essentials: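 Papp (cm/sec) was derived from LC/MS of basal samples collected 180 min after apical dosing in FaSSIF/HBSS pH 6.0 with 1% DMSO, against a basal HBSS pH 7.4 receiver containing 4% BSA. Three-week Caco-2 cultures were first preincubated with compound in DMEM+FaSSIF at 37 °C for 20–24 h.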
(In general: Caco-2 cells form a polarised layer with tight junctions and transporters.)
`CCCC[C@@H](O)[C@@H]1NC(=O)[C@H](CC(C)C)N(C)C(=O)[C@H](CC(C)C)NC(=O)[C@H](Cc2ccccc2)N(C)C(=O)[C@@H](C)NC(=O)C[C@@H](C(=O)N2CCCCC2)NC(=O)[C@H](C)N(C)C(=O)[C@H](Cc2ccccc2)N(C)C(=O)[C@H](COC(C)(C)C)NC(=O)[C@H](CC(C)C)N(C)C(=O)CN(C)C1=O` [pd466] ([dA][NMeF]L[NMeL][X12][Sar][NMeL]S(tBu)[NMeF][NMeA]D-Piperidide; lactam N-11) had a Caco-2 of 1.1e-06 cm/s.

The molecule `CC(C)C[C@H]1C(=O)N[C@@H](COC(C)(C)C)C(=O)N(C)[C@@H](Cc2ccccc2)C(=O)N(C)[C@@H](CC(C)C)C(=O)N[C@H](C(=O)N2CCCCC2)CC(=O)N[C@H](C(C)C)C(=O)N(C)[C@@H](C(C)C)C(=O)N[C@@H](Cc2ccc(C(F)F)cc2)C(=O)N(C)[C@@H](CC(C)C)C(=O)N[C@@H]([C@@H](C)O)C(=O)N(C)CC(=O)N1C` [pd472] ([dV][NMeV][Phe(4-CHF2)][NMeL]T[Sar][NMeL]S(tBu)[NMeF][NMeL]D-Piperidide; lactam N-11) came in with a Caco-2 of 1.1e-06 cm/s.

Turning to `CC(C)C[C@H]1C(=O)N[C@@H](COC(C)(C)C)C(=O)N(C)[C@@H](Cc2ccccc2)C(=O)N(C)[C@@H](CC(C)C)C(=O)N[C@H](C(=O)N2CCCCC2)CC(=O)N[C@H](C(C)C)C(=O)N(C)[C@@H](C(C)C)C(=O)N[C@@H](Cc2ccc(OC(F)F)cc2)C(=O)N(C)[C@@H](CC(C)C)C(=O)N[C@@H]([C@@H](C)O)C(=O)N(C)CC(=O)N1C` [pd476] ([dV][NMeV]Y(CHF2)[NMeL]T[Sar][NMeL]S(tBu)[NMeF][NMeL]D-Piperidide; lactam N-11), the Caco-2 is 1.1e-06 cm/s.

Molecule `CCCCN1CC(=O)N(C)[C@@H](CC(C)C)C(=O)N[C@H](C(=O)N2CCCCC2)CC(=O)N(C)[C@@H](CC)C(=O)N[C@H](CC(C)C)C(=O)N(C)[C@@H](CC(C)C)C(=O)N(C)[C@@H](Cc2ccccc2)C(=O)N[C@@H](COCCN2CCOCC2)C(=O)N(C)[C@H](CC)C(=O)N(C)[C@@H](CC(C)C)C(=O)N[C@@H]([C@@H](C)O)C1=O` [pd482] ([NMeAbu][dL][NMeL][NMeF]S(Ethyl(2-morpholino))[dNMeAbu][NMeL]T[NBuGly][NMeL]D-Piperidide; lactam N-11) yielded a Caco-2 of 1.1e-06 cm/s.

`CCCCN1CC(=O)N(C)[C@@H](Cc2ccccc2)C(=O)N(C)[C@@H](CC(C)C)C(=O)N[C@@H](CC(C)C)C(=O)N(C)[C@@H](CC(C)C)C(=O)N[C@H](C(=O)N2CCCCC2)CC(=O)N(C)CC(=O)N(C)[C@@H](CC)C(=O)N[C@@H](C(C)C)C(=O)N(C)[C@@H](CC(C)C)C(=O)N[C@@H](COCCN2CCOCC2)C1=O` [pd486] ([Sar][NMeAbu]V[NMeL]S(Ethyl(2-morpholino))[NBuGly][NMeF][NMeL]L[NMeL]D-Piperidide; lactam N-11) gave a Caco-2 of 1.1e-06 cm/s.

`CCCCN1CC(=O)N(C)[C@@H](CC(C)C)C(=O)N[C@H](C(=O)N2CCCCC2)CC(=O)N(C)[C@@H](C)C(=O)N[C@@H](COC[C@@H](C)O)C(=O)N(C)[C@H](CC(C)C)C(=O)N(C)[C@@H](Cc2cccc(Cl)c2)C(=O)N[C@@H](CC(C)C)C(=O)N(C)[C@@H](Cc2ccccc2)C(=O)N(C)[C@@H]([C@@H](C)CC)C(=O)N[C@@H]([C@@H](C)O)C1=O` [pd489] ([NMeA]S(Propyl(2R-OH))[dNMeL][NMePhe(3-Cl)]L[NMeF][NMeI]T[NBuGly][NMeL]D-Piperidide; lactam N-11) displayed a Caco-2 of 1.1e-06 cm/s.

In turn, `CC[C@H](C)[C@H]1C(=O)N[C@@H]([C@@H](C)O)C(=O)N(C)CC(=O)N(C)[C@@H](CC(C)C)C(=O)N[C@H](C(=O)N2CCCCC2)CC(=O)N(C)[C@@H](C(C)C)C(=O)N[C@@H](COC[C@@H](C)O)C(=O)N(C)[C@H](CC(C)C)C(=O)N(C)[C@@H](Cc2cccc(Cl)c2)C(=O)N[C@@H](CC(C)C)C(=O)N(C)[C@@H](Cc2ccccc2)C(=O)N1C` [pd491] ([NMeV]S(Propyl(2R-OH))[dNMeL][NMePhe(3-Cl)]L[NMeF][NMeI]T[Sar][NMeL]D-Piperidide; lactam N-11) registered a Caco-2 of 1.1e-06 cm/s.

With `CC(C)C[C@H]1C(=O)N[C@@H](C(C)C)C(=O)N(C)[C@@H](Cc2ccccc2)C(=O)N(C)[C@@H](Cc2ccccc2)C(=O)N[C@@H](COC(C)(C)C)C(=O)N(C)[C@@H](CC(C)C)C(=O)N[C@@H](COCCO)C(=O)N(C)[C@@H](CC(C)C)C(=O)N(C)[C@@H](CC(C)C)C(=O)N[C@H](C(=O)N2CCCCC2)CC(=O)N(C)CCCC(=O)N1C` [pd498] ([NMeGABA][NMeL]V[NMeF][NMeF]S(tBu)[NMeL]S(Ethyl(2-OH))[NMeL][NMeL]D-Piperidide; lactam N-11), the Caco-2 turned out to be 1.1e-06 cm/s.

For the molecule `CCCCN1CC(=O)N(C)[C@@H](Cc2ccccc2)C(=O)N(C)[C@@H](CC(C)C)C(=O)N[C@@H](COC(C)(C)C)C(=O)N(C)[C@@H](CC(C)C)C(=O)N[C@H](C(=O)N2CCCCC2)CC(=O)N(C)CC(=O)N(C)[C@@H](Cc2ccccc2)C(=O)N[C@@H](C(C)C)C(=O)N(C)[C@@H](CC(C)C)C(=O)N[C@@H](COCCO)C1=O` [pd501] ([Sar][NMeF]V[NMeL]S(Ethyl(2-OH))[NBuGly][NMeF][NMeL]S(tBu)[NMeL]D-Piperidide; lactam N-11), the Caco-2 came to 1.1e-06 cm/s.

(Values after patent publication US20200131669A1, “CYCLIC PEPTIDE COMPOUND HAVING HIGH MEMBRANE PERMEABILITY, AND LIBRARY CONTAINING SAME” (Chugai Seiyaku Kabushiki Kaisha, priority 2017, published 2020).)
